Data published in the CheMixHub viscosity set.

Assay: xn = mol fraction of the nth substance listed

CC(N)CN (stereo not given) + OCCCCO
viscosity [mPa·s], 101.33 kPa
Conditions | 293.15 K | 298.15 K | 303.15 K | 308.15 K | 313.15 K | 318.15 K
x2 = 0.0415 | 2.17 | 1.92 | 1.66 | 1.48 | 1.3 | 1.21
x2 = 0.0837 | 2.83 | 2.5 | 2.1 | 1.86 | 1.63 | 1.54
x2 = 0.1267 | 3.76 | 3.28 | 2.72 | 2.37 | 2.07 | 1.91
x2 = 0.1705 | 5.08 | 4.37 | 3.59 | 3.08 | 2.65 | 2.44
x2 = 0.2152 | 6.86 | 5.84 | 4.71 | 4.02 | 3.41 | 3.11
x2 = 0.2606 | 8.9 | 7.88 | 6.27 | 5.26 | 4.42 | –
x2 = 0.3069 | 13.32 | 10.91 | 8.54 | 7.05 | 5.85 | –
x2 = 0.3541 | 18.39 | 14.82 | 11.39 | 9.32 | 7.62 | –
x2 = 0.4022 | 25.44 | 20.09 | 15.23 | 12.31 | 9.87 | –
x2 = 0.4513 | 34.76 | 27.12 | 20.33 | 16.17 | 13.1 | –
x2 = 0.5013 | 47.13 | 36.26 | 26.83 | 21.01 | 16.42 | –
x2 = 0.5523 | 61.72 | 47.01 | 34.44 | 26.7 | 20.75 | –
x2 = 0.6043 | 75.89 | 57.65 | 42 | 32.37 | 25.02 | –
x2 = 0.6574 | 90.68 | 69.04 | 50.16 | 38.64 | 29.82 | –
x2 = 0.7116 | 99.83 | 76.3 | 55.75 | 42.89 | 33.12 | –
x2 = 0.7669 | 106 | 81.64 | 60.1 | 46.57 | 36.08 | –
x2 = 0.8233 | 107.2 | 83.62 | 61.98 | 48.39 | 37.8 | –
x2 = 0.881 | 104.3 | 82.14 | 61.43 | 48.46 | 38.15 | –
x2 = 0.9399 | 98.79 | 78.35 | 59.29 | 47.22 | 37.43 | –

CC(N)CN (stereo not given) + O
viscosity [mPa·s], 101 kPa
Conditions | 298.15 K | 303.15 K | 308.15 K | 313.15 K | 318.15 K | 323.15 K
x1 = 0.0997 | 6.527 | 5.479 | 4.625 | 3.878 | 3.237 | –
x1 = 0.0998 | – | 3.004 | 2.529 | 2.154 | 1.855 | 1.625
x1 = 0.1997 | – | 6.596 | 5.258 | 4.287 | 3.559 | 2.977
x1 = 0.2002 | 9.458 | 7.901 | 6.605 | 5.522 | 4.611 | –
x1 = 0.2522 | – | 7.702 | 6.095 | 4.913 | 4.041 | 3.365
x1 = 0.2992 | – | 8.043 | 6.383 | 5.139 | 4.211 | 3.495
x1 = 0.2998 | 10.24 | 8.542 | 7.121 | 5.956 | 4.993 | –
x1 = 0.3412 | – | 7.793 | 6.196 | 5.033 | 4.11 | 3.452
x1 = 0.3995 | 9.546 | 7.939 | 6.633 | 5.555 | 4.676 | –
x1 = 0.4012 | – | 7.095 | 5.678 | 4.69 | 3.823 | 3.204
x1 = 0.4957 | 8.037 | 6.649 | 5.591 | 4.69 | 3.961 | –
x1 = 0.5022 | – | 5.538 | 4.504 | 3.734 | 3.14 | 2.671
x1 = 0.6011 | – | 3.921 | 3.288 | 2.792 | 2.395 | 2.08
x1 = 0.6024 | 6.005 | 4.915 | 4.178 | 3.516 | 2.983 | –
x1 = 0.6913 | – | 2.844 | 2.443 | 2.113 | 1.85 | 1.632
x1 = 0.694 | 4.35 | 3.566 | 3.067 | 2.603 | 2.23 | –
x1 = 0.7912 | – | 2.119 | 1.854 | 1.634 | 1.45 | 1.302
x1 = 0.7949 | 2.882 | 2.425 | 2.098 | 1.814 | 1.585 | –
x1 = 0.8901 | 1.975 | 1.752 | 1.508 | 1.337 | 1.199 | –
x1 = 0.8998 | – | 1.689 | 1.501 | 1.312 | 1.216 | 1.101
